As usually defined, the melting point is the temperature of the solid-liquid transition.

Here are results for 17 molecules from patent US11753407B2, “Compounds for treating spinal muscular atrophy” (PTC Therapeutics, Inc., priority 2012, dated 2023).

Data set [1] concerns Smn protein in SMA patient fibroblast cells (GM03813). The data set can be described thus: Smn protein assay in cultured cells (SMN HTRF). The settings on record: SMA patient fibroblast cells, 48 hours; for maximum fold (Fold) increase of Smn protein: 7-point concentration data, fold relative to vehicle control; for EC1.5x for Smn protein expression: 7-point concentration curve, SMN HTRF, concentration producing 1.5 times Smn protein vs DMSO vehicle control. The format is cell-based, human. The essentials: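 SMA patient fibroblasts (5,000 cells/well, DMEM-10% FBS) were treated for 48 h at 37 °C with a 7-point, 3.16-fold dilution series in triplicate. RIPA lysates were probed by HTRF (anti-SMN d2/kryptate, overnight, room temperature), reading 665/620 nm. EC1.5× is the concentration giving 1.5-fold Smn over DMSO vehicle.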

The subject of data set [2] is SMN2 minigene mRNA (SMN2-A minigene) in HEK293H cells. The data set can be described thus: SMN2 minigene mRNA splicing RT-qPCR assay in cultured cells. The format is cell-based, human. The settings on record: Homo sapiens, HEK293-H; concentration increasing full length SMN2 mRNA 1.5-fold relative to vehicle-treated cells; HEK293H cells with SMN2-A minigene, 24 hours, 7-point concentration data; read-out: EC1.5x for production of full length SMN2 mRNA. In short, it runs like this: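 HEK293H cells stably carrying the SMN2-A minigene were treated for 24 h at 37 °C with a 7-point, 3.16-fold dilution series of compound. Multiplex RT-qPCR measured exon 7-containing minigene FL mRNA against GAPDH, expressed relative to vehicle by modified ΔΔCt; the EC1.5× is the concentration giving a 1.5-fold increase.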
For orientation: Quantitative PCR measures a nucleic acid by following its amplification.

Turning to `CCc1nc2ccc(-c3cc(=O)n4cc(N5CCNCC5)ccc4n3)cc2o1` [Compound 265, 2-(2-ethyl-1,3-benzoxazol-6-yl)-7-(piperazin-1-yl)-4H-pyrido[1,2-a]pyrimidin-4-one], the melting point is 170 to 175 °C. In addition, the “maximum fold (Fold) increase of Smn protein” value (“maximum fold (Fold) increase” for short) in data set [1] is “*** (a fold increase between >1.35 and ≤1.5 is indicated by three stars (***))”. In addition, the EC (1.5-fold increase) in data set [2] is 1 to 3 µM.
For `CCc1nc2ccc(-c3cc(=O)n4cc(N5CCN[C@@H](C)C5)ccc4n3)cc2o1` [Compound 266, 2-(2-ethyl-1,3-benzoxazol-6-yl)-7-[(3S)-3-methylpiperazin-1-yl]-4H-pyrido[1,2-a]pyrimidin-4-one], the melting point is 168 to 170 °C. Moreover, the “maximum fold (Fold) increase” value in data set [1] was “** (a fold increase between >1.2 and ≤1.35 is indicated by two stars (**))”. In addition, the EC (1.5-fold increase) in data set [2] was 1 to 3 µM.
The molecule `Cc1nc2ccc(-c3cc(=O)n4cc(N5C[C@H]6CN(C)C[C@H]6C5)ccc4n3)cc2o1` [Compound 267, 2-(2-methyl-1,3-benzoxazol-6-yl)-7-[(3aR,6aS)-5-methylhexahydropyrrolo[3,4-c]pyrrol-2(1H)-yl]-4H-pyrido[1,2-a]pyrimidin-4-one] gave a melting point of 200 to 204 °C. For the same molecule, in data set [1], the “EC1.5x for Smn protein expression” value is reported as “**** (an EC1.5x≤0.3 μM is indicated by four stars (****))” and the “maximum fold (Fold) increase” value is “***** (a fold increase >1.65 is indicated by five stars (*****))”. Moreover, the EC (1.5-fold increase) in data set [2] is below 0.1 µM.
For `Cc1cn2cc(-c3ccc4nc(N5CCNCC5)cc(=O)n4c3)cc(F)c2n1` [Compound 268, 7-(8-fluoro-2-methylimidazo[1,2-a]pyridin-6-yl)-2-(piperazin-1-yl)-4H-pyrido[1,2-a]pyrimidin-4-one], the melting point was 308 °C (dec.). Also, in data set [1], the “EC1.5x for Smn protein expression” value is “**** (an EC1.5x≤0.3 μM is indicated by four stars (****))” and the “maximum fold (Fold) increase” value is listed as “***** (a fold increase >1.65 is indicated by five stars (*****))”. Besides, in data set [2], the EC (1.5-fold increase) was below 0.1 µM.
For `Cc1cn2cc(-c3cc(=O)n4cc(N5CCN6CCC[C@H]6C5)ccc4n3)cc(F)c2n1` [Compound 271, 2-(8-fluoro-2-methylimidazo[1,2-a]pyridin-6-yl)-7-[(8aS)-hexahydropyrrolo[1,2-a]pyrazin-2(1H)-yl]-4H-pyrido[1,2-a]pyrimidin-4-one] the same measures were 270 to 274 °C, “**** (an EC1.5x≤0.3 μM is indicated by four stars (****))”, “***** (a fold increase >1.65 is indicated by five stars (*****))” and below 0.1 µM.
The corresponding values for `Cc1cn2cc(-c3cc(=O)n4cc(N5CCN6CCC[C@@H]6C5)ccc4n3)cc(F)c2n1` [Compound 272, 2-(8-fluoro-2-methylimidazo[1,2-a]pyridin-6-yl)-7-[(8aR)-hexahydropyrrolo[1,2-a]pyrazin-2(1H)-yl]-4H-pyrido[1,2-a]pyrimidin-4-one] are 277 to 280 °C, “**** (an EC1.5x≤0.3 μM is indicated by four stars (****))”, “***** (a fold increase >1.65 is indicated by five stars (*****))” and below 0.1 µM.
The corresponding values for `Cc1cn2cc(-c3cc(=O)n4cc(N5CC[C@@H](N(C)C)C5)ccc4n3)cc(F)c2n1` [Compound 274, 7-[(3R)-3-(dimethylamino)pyrrolidin-1-yl]-2-(8-fluoro-2-methylimidazo[1,2-a]pyridin-6-yl)-4H-pyrido[1,2-a]pyrimidin-4-one] are 300 °C (dec.), “**** (an EC1.5x≤0.3 μM is indicated by four stars (****))”, “***** (a fold increase >1.65 is indicated by five stars (*****))” and below 0.1 µM.
Regarding `Cc1cn2cc(-c3cc(=O)n4cc(N5CC[C@H](N(C)C)C5)ccc4n3)cc(F)c2n1` [Compound 275, 7-[(3S)-3-(dimethylamino)pyrrolidin-1-yl]-2-(8-fluoro-2-methylimidazo[1,2-a]pyridin-6-yl)-4H-pyrido[1,2-a]pyrimidin-4-one], the melting point lay in the range of 294 to 297 °C. Further, in data set [1], the “EC1.5x for Smn protein expression” value is listed as “**** (an EC1.5x≤0.3 μM is indicated by four stars (****))” and the “maximum fold (Fold) increase” value is on record as “***** (a fold increase >1.65 is indicated by five stars (*****))”. Further, the EC (1.5-fold increase) in data set [2] is below 0.1 µM.
The molecule `COc1ccc(-c2ccc3nc(N4CC[C@@H](N(C)C)C4)cc(=O)n3c2)cc1F` [Compound 277, 2-[(3R)-3-(dimethylamino)pyrrolidin-1-yl]-7-(3-fluoro-4-methoxyphenyl)-4H-pyrido[1,2-a]pyrimidin-4-one] returned a melting point of 167 to 170 °C. Further, the “maximum fold (Fold) increase” value in data set [1] is “*** (a fold increase between >1.35 and ≤1.5 is indicated by three stars (***))”. For the same molecule, the EC (1.5-fold increase) in data set [2] was in the range of 1 to 3 µM.
As to `COc1ccc(-c2ccc3nc(N4CC[C@H](N(C)C)C4)cc(=O)n3c2)cc1F` [Compound 278, 2-[(3S)-3-(dimethylamino)pyrrolidin-1-yl]-7-(3-fluoro-4-methoxyphenyl)-4H-pyrido[1,2-a]pyrimidin-4-one], the melting point fell in the range of 167 to 169 °C. The “maximum fold (Fold) increase” value in data set [1] is “** (a fold increase between >1.2 and ≤1.35 is indicated by two stars (**))”. The EC (1.5-fold increase) in data set [2] was in the range of 1 to 3 µM.
In the case of `COc1ccc(-c2cc(=O)n3cc(N4C[C@H]5CN(CCO)C[C@H]5C4)ccc3n2)cc1F` [Compound 279, 2-(3-fluoro-4-methoxyphenyl)-7-[(3aR,6aS)-5-(2-hydroxyethyl)hexahydropyrrolo[3,4-c]pyrrol-2(1H)-yl]-4H-pyrido[1,2-a]pyrimidin-4-one], the melting point lay in the range of 180 to 186 °C. The “maximum fold (Fold) increase” value in data set [1] was “** (a fold increase between >1.2 and ≤1.35 is indicated by two stars (**))”. In data set [2], the EC (1.5-fold increase) lay in the range of 0.1 to 0.3 µM.
The molecule `COc1ccc(-c2cc(=O)n3cc(N4C[C@@H]5CCN(C)[C@@H]5C4)ccc3n2)cc1F` [Compound 280, 2-(3-fluoro-4-methoxyphenyl)-7-[(3aS,6aS)-1-methylhexahydropyrrolo[3,4-b]pyrrol-5(1H)-yl]-4H-pyrido[1,2-a]pyrimidin-4-one] came in with a melting point of 207 to 211 °C. For the same molecule, the “maximum fold (Fold) increase” value in data set [1] is “* (A maximum fold increase of ≤1.2 is indicated by one star (*))”. For the same molecule, in data set [2], the EC (1.5-fold increase) lay in the range of 1 to 3 µM.
For `COc1ccc(-c2cc(=O)n3cc(N4C[C@@H]5CN(C(C)C)C[C@@H]5C4)ccc3n2)cc1F` [Compound 281, 2-(3-fluoro-4-methoxyphenyl)-7-[(3aR,6aS)-5-(propan-2-yl)hexahydropyrrolo[3,4-c]pyrrol-2(1H)-yl]-4H-pyrido[1,2-a]pyrimidin-4-one], the melting point was in the range of 189 to 192 °C. In addition, the “maximum fold (Fold) increase” value in data set [1] was “** (a fold increase between >1.2 and ≤1.35 is indicated by two stars (**))”. Also, in data set [2], the EC (1.5-fold increase) was 0.1 to 0.3 µM.
Consider `COc1ccc(-c2cc(=O)n3cc(N4CC[C@@H](N(C)C)C4)ccc3n2)cc1F` [Compound 282, 7-[(3R)-3-(dimethylamino)pyrrolidin-1-yl]-2-(3-fluoro-4-methoxyphenyl)-4H-pyrido[1,2-a]pyrimidin-4-one], for which the melting point is 188 to 191 °C. The “maximum fold (Fold) increase” value in data set [1] is “** (a fold increase between >1.2 and ≤1.35 is indicated by two stars (**))”. Further, the EC (1.5-fold increase) in data set [2] lay in the range of 0.3 to 1 µM.
Take `Cc1nc2ccc(-c3cc(=O)n4cc(N5CCNC(C)(C)C5)ccc4n3)cc2s1` [Compound 283, 7-(3,3-dimethylpiperazin-1-yl)-2-(2-methyl-1,3-benzothiazol-6-yl)-4H-pyrido[1,2-a]pyrimidin-4-one]: the melting point lay in the range of 200 to 202 °C. In data set [1], the “EC1.5x for Smn protein expression” value is recorded as “**** (an EC1.5x≤0.3 μM is indicated by four stars (****))”; the “maximum fold (Fold) increase” value is “**** (a fold increase between >1.5 and ≤1.65 is indicated by four stars (****))”. In addition, the EC (1.5-fold increase) in data set [2] was below 0.1 µM.
Consider `Cc1nc2ccc(-c3cc(=O)n4cc(N5CCN6CCC[C@@H]6C5)ccc4n3)cc2s1` [Compound 284, 7-[(8aR)-hexahydropyrrolo[1,2-a]pyrazin-2(1H)-yl]-2-(2-methyl-1,3-benzothiazol-6-yl)-4H-pyrido[1,2-a]pyrimidin-4-one], for which the melting point fell in the range of 254 to 256 °C. In addition, in data set [1], the “EC1.5x for Smn protein expression” value was “*** (an EC1.5× between >0.3 μM and ≤1 μM is indicated by three stars (***))”; the “maximum fold (Fold) increase” value was “**** (a fold increase between >1.5 and ≤1.65 is indicated by four stars (****))”. In data set [2], the EC (1.5-fold increase) lay within 0.3 to 1 µM.
`Cc1nc2ccc(-c3cc(=O)n4cc(OC5CCNCC5)ccc4n3)cc2s1` [Compound 286, 2-(2-methyl-1,3-benzothiazol-6-yl)-7-(piperidin-4-yloxy)-4H-pyrido[1,2-a]pyrimidin-4-one] displayed a melting point of 218 to 220 °C. For the same molecule, in data set [1], the “EC1.5x for Smn protein expression” value was “*** (an EC1.5× between >0.3 μM and ≤1 μM is indicated by three stars (***))”; the “maximum fold (Fold) increase” value was “**** (a fold increase between >1.5 and ≤1.65 is indicated by four stars (****))”. In addition, the EC (1.5-fold increase) in data set [2] lay within 0.3 to 1 µM.
